Source: ChEMBL document CHEMBL4385602, “Stereoselective synthesis and biological evaluation as inhibitors of hepatitis C virus RNA polymerase of GSK3082 analogues with structural diversity at the 5-position” (Eur J Med Chem, 2019)

Key:
[1] = molecular target: RNA-directed RNA polymerase (Hepacivirus hominis) (UniProt O39930); assay: Inhibition of NS5B RNA dependent RNA polymerase in HCV 1b Con1 infected in human Huh5-2 cells assessed as reduction in viral RNA replication measured after 3 days by luciferase reporter gene assay; format: cell-based; conditions: Hepatitis C virus subtype 1b
Sequence of RNA-directed RNA polymerase (Hepacivirus hominis) (O39930 1-591): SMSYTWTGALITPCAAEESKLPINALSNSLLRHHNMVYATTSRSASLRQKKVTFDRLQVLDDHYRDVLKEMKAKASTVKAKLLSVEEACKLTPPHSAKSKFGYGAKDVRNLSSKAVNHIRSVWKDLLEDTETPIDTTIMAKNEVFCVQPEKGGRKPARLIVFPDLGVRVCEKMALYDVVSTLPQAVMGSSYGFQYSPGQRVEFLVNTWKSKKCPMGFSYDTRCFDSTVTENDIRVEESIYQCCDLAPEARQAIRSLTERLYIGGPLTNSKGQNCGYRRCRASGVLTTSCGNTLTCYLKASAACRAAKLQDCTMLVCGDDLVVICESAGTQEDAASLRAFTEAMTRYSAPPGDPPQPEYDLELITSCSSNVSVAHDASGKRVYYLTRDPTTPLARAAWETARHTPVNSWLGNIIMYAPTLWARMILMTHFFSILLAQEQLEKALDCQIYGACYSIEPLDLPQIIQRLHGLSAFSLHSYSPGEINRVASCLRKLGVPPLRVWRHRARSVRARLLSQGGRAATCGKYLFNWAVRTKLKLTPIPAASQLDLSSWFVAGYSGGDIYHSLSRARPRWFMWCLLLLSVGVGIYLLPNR

[2] = Cytotoxicity against human Huh5-2 cells assessed as reduction in cell viability measured after 3 days by CellTiter 96 AQueous One Solution Cell Proliferation assay; format: cell-based, Huh-5-2

| SMILES | inhibition [1] | CC50 at 72 h [2] [µM] |
| --- | --- | --- |
| COC[C@H]1C[C@@](CC(C)C)(C(=O)O)N(C(=O)c2ccc(C(C)(C)C)c(OC)c2)[C@H]1C(N)=O | Dose-dependent effect | > 120 |
| CCOC(=O)c1csc([C@H]2[C@@H](COC)C[C@@](CC(C)C)(C(=O)O)N2C(=O)c2ccc(C(C)(C)C)c(OC)c2)n1 | Dose-dependent effect | 200 |
| COC[C@H]1C[C@@](CC(C)C)(C(=O)O)N(C(=O)c2ccc(C(C)(C)C)c(OC)c2)[C@H]1CN=[N+]=[N-] | Dose-dependent effect | > 120 |
| COC[C@H]1C[C@@](CC(C)C)(C(=O)O)N(C(=O)c2ccc(C(C)(C)C)c(OC)c2)[C@H]1[C@H]1COC(=O)O1 | Dose-dependent effect | > 120 |
| COC[C@H]1C[C@@](CC(C)C)(C(=O)O)N(C(=O)c2ccc(C(C)(C)C)c(OC)c2)[C@H]1COC(=O)OC | Dose-dependent effect | > 120 |
| COC[C@H]1C[C@@](CC(C)C)(C(=O)O)N(C(=O)c2ccc(C(C)(C)C)c(OC)c2)[C@H]1CNC(C)=O | Dose-dependent effect | > 120 |
| COC[C@H]1C[C@@](CC(C)C)(C(=O)O)N(C(=O)c2ccc(C(C)(C)C)c(OC)c2)[C@H]1c1nccs1 | Dose-dependent effect | > 120 |
| COC[C@H]1C[C@@](CC(C)C)(C(=O)O)N(C(=O)c2ccc(C(C)(C)C)c(OC)c2)[C@@H]1c1nccs1 | Dose-dependent effect | 200 |
| CC[C@H]1[C@@H](COC)C[C@@](CC(C)C)(C(=O)O)N1C(=O)c1ccc(C(C)(C)C)c(OC)c1 | Dose-dependent effect | 200 |
| COC[C@H]1C[C@@](CC(C)C)(C(=O)O)N(C(=O)c2ccc(C(C)(C)C)c(OC)c2)[C@H]1COC | Dose-dependent effect | > 120 |
| COC[C@H]1C[C@@](CC(C)C)(C(=O)O)N(C(=O)c2ccc(C(C)(C)C)c(OC)c2)[C@H]1COC(C)=O | Dose-dependent effect | > 120 |
| COC[C@H]1C[C@@](CC(C)C)(C(=O)O)N(C(=O)c2ccc(C(C)(C)C)c(OC)c2)[C@H]1[C@H]1COC(C)(C)O1 | Dose-dependent effect | > 120 |
| COC[C@H]1C[C@@](CC(C)C)(C(=O)O)N(C(=O)c2ccc(C(C)(C)C)c(OC)c2)[C@H]1CF | Dose-dependent effect | > 120 |
| C=CCOC[C@H]1[C@@H](COC)C[C@@](CC(C)C)(C(=O)O)N1C(=O)c1ccc(C(C)(C)C)c(OC)c1 | Dose-dependent effect | > 120 |
| COC[C@H]1C[C@@](CC(C)C)(C(=O)O)N(C(=O)c2ccc(C(C)(C)C)c(OC)c2)[C@H]1C(=O)OC | Dose-dependent effect | > 120 |
